Measured values taken from patent publication US20230142026A1, “COMPOSITION FOR ENHANCING DROUGHT AND OSMOTIC STRESS RESISTANCE, AND THEIR USES” (REPUBLIC OF KOREA (MANAGEMENT : RURAL DEVELOPMENT …, priority 2019, published 2023).

Legend:
[1] = tested on: pABRE-DRE::fLUC; assay: Induction of environmental stress response: pABRE-DRE::fLUC reporter in rice protoplasts; type: cell-based; details: 15 hours after treatment
Description: Rice protoplasts were transiently transformed with a pABRE-DRE::fLUC transporter, which induces the expression of the reporter gene, luciferase, in response to the plant environmental stress resistance hormone ABA (abscisic acid), and were then treated with 90 kinds of compounds having a structure similar to ABA received from the Korea Chemical Bank, and a compound that enhances the expression of the reporter was selected from the compounds and referred to as “S17”.
In order to verify the effect of inducing response to environmental stress of the S17 compound compared with ABA, pABRE-DRE::fLUC and the transformation marker pUbi10::rLUC transporter were transiently expressed in rice protoplasts, and then treated with ABA and the S17 compound. After 15 hours, the degree of expression of fLUC was detected.

[2] = tested on: pABRE-DRE::fLUC with OsPP2C51 or OsPP2C68; assay: pABRE-DRE::fLUC reporter in rice protoplasts co-expressing OsPP2C51 or OsPP2C68 (ABA signaling inhibitors); type: cell-based
Description: In addition, in order to investigate the signal transduction process activated by the S17 compound, the dephosphorylation enzyme, OsPP2C51 or OsPP2C68 gene, which inhibits ABA signaling, and reporter transporters (pABRE-DRE::fLUC, pUbi10::rLUC) were simultaneously transiently expressed in rice protoplasts and then treated with ABA and the S17 compound to identify the expression of the reporter.

[3] = tested on: rice; assay: Drought resistance (drying experiment) of S17-treated rice; type: in vivo
Description: An experimental group, in which rice grown in a nutrient solution for 14 days was treated with S17, was compared with an untreated control group to determine whether or not S17 induces drought resistance. 3 days after treatment with S17, the nutrient solution fed to the experimental and control plants was removed to induce drought stress. The plants were allowed to be dried (for 12 to 24 hours) and water was fed again to the control and experimental groups, and the rate of the surviving plants was measured (FIGS. 2A and 2B). […] The dry weight of the experimental group was measured. […] This is considered to be due to the effect of inhibiting growth occurring during the treatment with S17.

[4] = tested on: rice; assay: Water loss rate of cut third leaves of compound-treated rice; type: in vivo; details: one day
Description: (§1) In addition, the third leaves of rice of the experimental and control groups treated with ABA (5 μM) and S17 (various concentrations, 10 and 20 μM), respectively, for one day were cut, and the water loss rate was compared therebetween. […] The amount of water in a 50-ml tube that was used for 2 days by three Dongjin rice plants which had been grown for 14 days in a nutrient solution was measured. The control group used 19.9 g of water on average for 2 days, the group treated with ABA (5 μM) used 8.7 g of water, and the groups treated with 10 μM S17 and 20 μM S17 used 14.7 g and 12.5 g of water, respectively (FIG. 2E).

[5] = tested on: Dongjin rice plants; assay: Water consumption of compound-treated rice plants in 50-ml tube; type: in vivo; details: three 14-day plants, control 19.9 g
Description: as §1

[6] = tested on: rice; assay: Osmotic stress resistance of S17-treated rice using mannitol; type: in vivo
Description: Thus, the effects of S17 on osmotic stress were detected. Osmotic stress was induced using mannitol in 14-day-old rice after treatment with S17. The experimental group treated with 5 μM and 10 μM of S17 and the untreated control group were treated with 0 mM, 100 mM, and 200 mM of mannitol, and the growth of these plants was observed (FIG. 3A).
In addition, in order to determine the osmotic stress resistance and growth-enhancing effect, osmotic stress was induced using mannitol in 14-day-old rice treated with S17. The experimental group treated with 5 μM and 10 μM of S17 and the untreated control group were treated with 0 mM, 100 mM, and 200 mM of mannitol, and then the water consumption of these plants and the dry weight after the experiment were measured (FIG. 3). […] As the concentration of mannitol increased, the amount of water used in plants decreased due to osmotic pressure stress.

O=C(O)/C=C/c1ccsc1 [S17]
degree of expression of fLUC [1]: significantly expressed | expression of fLUC with OsPP2C51 or OsPP2C68 [2]: induced | average survival rate ([3]; 14-day rice, 3 days after S17 treatment, dried 12 to 24 hours, water fed again, control 16.6%): 76.7% | dry weight relative to average weight of control group ([3]; after drying experiment): 91.5% | water loss rate ([4]; S17 10 and 20 μM): decreased water loss rate | amount of water used for 2 days ([5]; 10 μM): 14.7 g | amount of water used for 2 days ([5]; 20 μM): 12.5 g | water consumption rate compared to the control group ([6]; 5 μM S17, 0 mM mannitol): 97.5% | amount of water used vs control not treated with S17 ([6]; 5 μM S17, 100 mM mannitol): 120% | dry weight compared to the group treated with 0 μM of S17 ([6]; 5 μM S17, 100 mM mannitol): 101% | amount of water used vs control not treated with S17 ([6]; 5 μM S17, 200 mM mannitol): 119% | dry weight compared to the group treated with 0 μM of S17 ([6]; 5 μM S17, 200 mM mannitol): 106% | dry weight compared to the group treated with 0 μM of S17 ([6]; 5 μM S17, no mannitol): 97% | leaf curling caused by osmotic stress ([6]; 5 μM and 10 μM S17, 0, 100, 200 mM mannitol): significantly reduced | water consumption rate compared to the control group ([6]; 10 μM S17, 0 mM mannitol): 78% | amount of water used vs control not treated with S17 ([6]; 10 μM S17, 100 mM mannitol): 106% | dry weight compared to the group treated with 0 μM of S17 ([6]; 10 μM S17, 100 mM mannitol): 104% | amount of water used vs control not treated with S17 ([6]; 10 μM S17, 200 mM mannitol): 128% | dry weight compared to the group treated with 0 μM of S17 ([6]; 10 μM S17, 200 mM mannitol): 112% | dry weight compared to the group treated with 0 μM of S17 ([6]; 10 μM S17, no mannitol): 82%

CC1=CC(=O)CC(C)(C)[C@@]1(O)/C=C/C(C)=C\C(=O)O [ABA, abscisic acid, reference compound]
expression of fLUC with OsPP2C51 or OsPP2C68 [2]: inhibited | water loss rate ([4]; ABA 5 μM): decreased water loss rate | amount of water used for 2 days ([5]; 5 μM): 8.7 g
